“Also recorded” adds a separate entry of the source.
Legend:
[1] = test system: human monocyte-derived dendritic cells (moDCs); assay: IL-1β secretion by human moDCs treated with lipid and R848; type: cell-based; settings: for hyperactivation of human dendritic cells: 41.25 μM lipid with R848 (Compound 1 also 20.6 μM); for IL-1β secretion / IL-1β secretion, dependence on the NLRP3 inflammasome: human moDCs; for IL-1β secretion, dependence on the NLRP3 inflammasome: R848 + lipid with or without MCC950, one day, FIG. 3B
Experimental: (§1) Human monocytes were isolated from Leukopaks purchased from Miltenyi using the StraightFrom Leukopak CD14 microbead kit (Miltenyi). Isolations were completed following manufacturer's instructions. Monocytes were then aliquoted and frozen in fetal bovine serum containing 10% dimethyl sulfoxide. For studies with monocyte-derived dendritic cell (moDC) cultures, monocytes were thawed and cultured in RPMI medium containing 10% FBS, 50 units/mL penicillin, […] streptomycin, 2 mM L-glutamine, 1 mM sodium pyruvate, […] beta-mercaptoethanol, 10 mM HEPES, and Gibco MEM non-essential amino acids (R10 media). To differentiate monocytes into moDCs, recombinant human GM-CSF (50 ng/mL) and IL-4 (25 ng/mL) were added to R10 media. Cells were cultured for 6 days with GM-CSF and IL-4, with an additional cell feeding with R10 containing GM-CSF and IL-4 on day 3.
Six days after differentiation, moDC were collected and counted. Cells were plated into 96-well flat-bottom plates at 1×10^5 cells/well. Cells were treated with or without 1 μg/mL R848 (final) and with or without a hyperactivating lipid (or vehicle control). In some experiments, MCC950, an inhibitor of the NLRP3 inflammasome, was added at a final concentration of 10 uM. In some experiments, nigericin, which causes NLRP3 inflammasome activation and subsequent pyroptosis, was used as a positive control at 20 uM. Cells and stimuli totaled a final volume of […].
Lipid stocks were then further diluted in PBS to treat cells.
After an overnight incubation, cells and culture supernatant were used for downstream readouts. One hundred and fifty microliters of cell supernatant were collected. Viability was measured using the CellTiter-Glo assay (Promega) which measures ATP content from cells. Fifty microliters of CellTiter-Glo reagent were added to 50 μL of cells. Luminescence was quantified on a SpectraMax m5e plate reader using an integration time of 500 milliseconds. Viability data were set relative to control conditions where cells were treated with only R848. To measure IL-1β secretion, the human IL-1β Lumit kit (Promega) was used to assay cell culture supernatant. Culture supernatant samples were incubated with enzyme-linked antibodies in a 384-well plate for 1 hour before addition of luminescent substrate. Samples were measured for luminescence with an integration time of 500 milliseconds. IL-1β concentrations of samples was determined by interpolation from a standard curve using 4-parameter logistic regression analysis. Studies were performed on three different human donor samples, and each biological condition was tested in triplicate. Graphed data represent means from each donor.
as §1, with “Human moDC Production. Human” for “Human”, “(Miltenyi) according to the” for “(Miltenyi). Isolations were completed following”, “To differentiate” for “For studies with”, “pyruvate, and” for “pyruvate,”, “beta-mercaptoethanol” for “beta-mercaptoethanol, 10 mM HEPES, and Gibco MEM non-essential amino acids”
Hyperactivating Lipid Formulation—Compound 10. Lipid stocks were formulated at 200 μg/mL lipid in 5% Kolliphor P407 (KP407) in PBS.

human moDCs = assay: IL-6 secretion by human moDCs; type: cell-based; settings: human moDCs, 41.25 μM lipid with R848, compared with R848 + vehicle; FIG. 16
murine FLT3L-DCs = assay: Murine bone marrow-derived FLT3L-DCs hyperactivation; type: cell-based, mice; settings: FLT3L DCs; for IL-1β secretion: 1 μg/mL R848 2-3 hours alone or then 41 uM lipid, 48 hours, FIG. 4A; for viability: R848 then 41 uM lipid, FIG. 4B
Experimental: Murine bone marrow-derived FLT3L-DCs generation. Leg femur and tibia were removed from mice, cut with scissors, and flushed into sterile tubes. Bone marrow suspension was treated with ACK for 1 minute, then passed through a 40 um cell strainer. Cells were counted and resuspended in media consisting of complete IMDM containing 10% FBS, penicillin and streptomycin, and supplements of L-glutamine and sodium pyruvate (I10). […] For each experiment, 5 mice are used to collect BM and to generate DCs.
Lipid preparation. […] Lipid stocks were then further diluted in PBS to treat cells.
Murine bone marrow-derived FLT3L-DCs hyperactivation. BMDCs were harvested on day 8 post differentiation, washed with PBS, and re-plated in FLT3L-containing I10 at a concentration of 1×10^5 cells/mL. Cells were primed with or without 1 μg/mL R848 (final) then treated with or without a hyperactivating lipid (or vehicle control). Forty-eight hours post stimulation, supernatants were collected for cytokine measurement. Viability was measured using the CellTiter-Glo assay (Promega) which measures ATP content from cells. Fifty microliters of CellTiter-Glo reagent were added to 50 μL of cells. Luminescence was quantified on a SpectraMax m5e plate reader using an integration time of 500 milliseconds. Viability data were set relative to control conditions where cells were treated with R848. IL-1β and TNFα cytokine were measured using sandwich ELISAs (Invitrogen).

[2] = 41.25 μM lipid with R848, FIG. 17
[3] = 41.3 uM lipid with R848, FIG. 11
[4] = 41.3 uM lipid with R848 and MCC950, FIG. 11
[5] = 24 hours, lipid in 4% KP407 with R848, FIG. 2B
[6] = 20.6 uM lipid with R848 and 10 uM MCC950, FIG. 14
[7] = 20.6 uM lipid with R848 vs vehicle, FIG. 14

Row | Compound | hyperactivation of human dendritic cells [1] | IL-1β secretion [1, 2] | IL-1β secretion [1, 3] | IL-1β secretion [1, 5] | IL-1β secretion, dependence on the NLRP3 inflammasome [1] | other results
1 | CCCCCCCCCCCCCCCCCCCCCCOC[C@H](COP(=O)(O)O)OC(=O)NC [Compound 6, (R)-1-(docosyloxy)-3-(phosphonooxy)propan-2-yl methylcarbamate] | did not | induced minimal IL-1β secretion | – | – | – | IL-6 secretion (human moDCs): IL-6 was secreted at similar levels
2 | CCCCCCCCCCCCCCCCCCCCCCOC[C@H](CO)OC(N)=O [Compound 7, (S)-1-(docosyloxy)-3-hydroxypropan-2-yl carbamate] | – | – | induced secretion of IL-1β | produced significantly more IL-1β | depend on the NLRP3 inflammasome for IL-1β secretion | IL-1β secretion (murine FLT3L-DCs): induced the lowest levels of IL-1β secretion; viability (murine FLT3L-DCs): viability was not compromised; hyperactivation of moDC (IL-1β secretion with maintained viability) ([1]; 41.3 uM lipid with R848): hyperactivating lipids; IL-1β secretion [1, 4]: significantly reduced
3 | CCCCCCCCCCCCCCCCCCCCCCOC[C@H](CO)OC(=O)NC [Compound 8, (S)-1-(docosyloxy)-3-hydroxypropan-2-yl methylcarbamate] | – | – | induced secretion of IL-1β | produced significantly more IL-1β | depend on the NLRP3 inflammasome for IL-1β secretion | IL-1β secretion (murine FLT3L-DCs): induced the lowest levels of IL-1β secretion; viability (murine FLT3L-DCs): viability was not compromised; hyperactivation of moDC (IL-1β secretion with maintained viability) ([1]; 41.3 uM lipid with R848): hyperactivating lipids; IL-1β secretion [1, 4]: significantly reduced
4 | CCCCCCCCCCCCCCCCCCCCCCOC[C@@H](O)CO [Compound 9, (S)-3-(docosyloxy)propane-1,2-diol] | – | – | robustly induced IL-113 secretion | produced significantly more IL-1β | depend on the NLRP3 inflammasome for IL-1β secretion | IL-1β secretion ([1]; 41.25 μM lipid with R848 vs vehicle control, FIG. 8): produced significantly more IL-1β
5 | CCCCCCCCCCCCCCCCCCOC[C@H](CO)OC(=O)NC [Compound 11, (S)-1-hydroxy-3-(octadecyloxy)propan-2-yl methylcarbamate] | hyperactivating lipids; also recorded: hyperactivated dendritic cells | significantly increased IL-1β secretion | – | – | – | hyperactivation of moDC (IL-1β secretion with maintained viability) ([1]; 20.6 uM lipid with R848): hyperactivating lipids; IL-1β secretion [1, 6]: inhibited; IL-1β secretion [1, 7]: significantly more IL-1β was detected
6 | CCCCCCCCCCCCCCCCCCOC[C@@H](O)CO [Compound 12, (S)-3-(octadecyloxy)propane-1,2-diol] | hyperactivating lipids; also recorded: hyperactivated dendritic cells | significantly increased IL-1β secretion | – | – | – | hyperactivation of moDC (IL-1β secretion with maintained viability) ([1]; 20.6 uM lipid with R848): hyperactivating lipids; IL-1β secretion [1, 6]: inhibited; IL-1β secretion [1, 7]: significantly more IL-1β was detected
7 | CCCCCCCCCCCCCCCCCCOC[C@H](COP(=O)(O)O)OC(=O)NC [Compound 13, (R)-1-(octadecyloxy)-3-(phosphonooxy)propan-2-yl methylcarbamate] | hyperactivating lipids; also recorded: hyperactivated dendritic cells | significantly increased IL-1β secretion | – | – | – | –
8 | CCCCCCCCCCCCCCCCCCCCCCOC[C@H](CO)OC(=O)N(C)C [Compound 14, (S)-1-(docosyloxy)-3-hydroxypropan-2-yl dimethylcarbamate] | did not | induced minimal IL-1β secretion | – | – | – | –
9 | (R)-2-((dimethylcarbamoyl)oxy)-3-ethoxypropyl (2-(trimethylammonio)ethyl) phosphate-icosane (1/1) [Compound 16] | hyperactivating lipids; also recorded: hyperactivated dendritic cells | significantly increased IL-1β secretion | – | – | – | –
10 | (R)-3-(docosyloxy)-2-((methylcarbamoyl)oxy) propyl (2-(trimethylammonio) ethyl) phosphate [Compound 4] | hyperactivating lipids; also recorded: hyperactivated dendritic cells | significantly increased IL-1β secretion | – | – | – | –

Reference: patent publication US20260097111A1, “ETHER LIPIDS FOR HYPERACTIVATION OF MAMMALIAN DENDRITIC CELLS” (priority 2022, published 2026)
